In PubChem BioAssay (NCI):
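Growth conditions: 96-well plates. Treatment: test compound, 48 hours, 5 concentrations. Analysis: linear interpolation between bracketing concentrations; unreached endpoints set to highest concentration. GI50 = concentration required for 50% inhibition of growth. The concentration for full growth arrest is given as TGI.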

Tests used:
Experiment in all cases: inhibition of tumour cell growth, NCI panel, 48 h
[1] = system: U251 CNS
[2] = system: IGROV1 ovarian
[3] = system: UACC-62 melanoma
[4] = system: RPMI-8226 leukemia
[5] = system: UACC-257 melanoma
[6] = system: HCT-15 colon
[7] = system: KM20L2 colon
[8] = system: NCI-H460 lung
[9] = system: A549 NSCLC
[10] = system: SF-539 CNS

SMILES | TGI [1] | TGI [2] | TGI [3] | TGI [4] | TGI [5] | TGI [6] | TGI [7] | TGI [8] | TGI [9] | TGI [10] | GI50 [1] | GI50 [2] | GI50 [3] | GI50 [4] | GI50 [9] | GI50 [10] | GI50 [5] | GI50 [6] | GI50 [8]
O=C1CN2C(Cl)(Cl)C2(c2ccccc2)c2cc(Cl)ccc2N1CC(F)(F)F (stereo not given) | 37.8 µM | 73.7 µM | > 100 µM | 78.5 µM | 51.9 µM | 81.6 µM | > 100 µM | 35.9 µM |  |  |  |  |  |  |  |  |  |  | 
CC1=C[C@]2(CC(C)C3C(CC4(C)C5CCC6C(C)(C)C(=O)CC[C@@]67C[C@@]57CC[C@]34C)O2)OC1=O (stereo not given in full) | > 100 µM | > 100 µM |  | > 100 µM | > 100 µM | > 100 µM |  | > 100 µM | > 100 µM | 42.5 µM |  |  |  |  |  |  |  |  | 
CCOc1ccc(/C=C/[N+](=O)[O-])cc1 | 8.83 µM | > 100 µM | 27.2 µM | 6.17 µM | 24 µM | 11.3 µM |  | > 100 µM | 27.7 µM | 6.4 µM | 3.1 µM | 21.8 µM | 13.8 µM | 2.14 µM | 12.6 µM | 2.35 µM | 11.2 µM | 2.84 µM | 26.8 µM
O=C(Nc1ccc(Cl)cc1)/C(Cc1cccc[n+]1[O-])=N\Nc1ccc([N+](=O)[O-])cc1[N+](=O)[O-] | > 100 µM | > 100 µM | > 100 µM | > 100 µM | > 100 µM | > 100 µM | > 100 µM | > 100 µM | > 100 µM | > 100 µM |  |  |  |  |  |  |  |  | 
COc1c2c(cc3c(CCc4ccccc4)cc(=O)oc13)CCC(C)(C)O2 | > 100 µM | > 100 µM | > 100 µM | > 100 µM | > 100 µM | > 100 µM | > 100 µM | > 100 µM |  |  |  |  |  |  |  |  |  |  | 
CN1C2C=C(c3ccccc3)CC1CC2 (stereo not given) | > 100 µM | > 100 µM | > 100 µM | > 100 µM | > 100 µM | > 100 µM | > 100 µM | > 100 µM | > 100 µM | > 100 µM |  |  |  |  |  |  |  |  | 
CCOc1ccc2c(ccc(/C=C\c3cc(C)c4cccnc4c3O)[n+]2C)c1 | 4.53 µM | 21.1 µM | 11.4 µM | 13.2 µM | 6.9 µM | 23.7 µM | 37 µM | 10.2 µM | 26.4 µM | 10.9 µM |  |  |  |  |  |  |  |  | 
Nc1ncnc2c1ncn2C1CCC(CO)O1 (stereo not given) | > 100 µM | > 100 µM | > 100 µM | > 100 µM | > 100 µM | > 100 µM | > 100 µM | > 100 µM | > 100 µM | > 100 µM |  |  |  |  |  |  |  |  | 
CO/N=C1/c2sccc2[C@H](NC(=O)C(F)(F)F)[C@@H]1O | > 100 µM | > 100 µM | > 100 µM |  | > 100 µM | > 100 µM |  | > 100 µM | > 100 µM | > 100 µM |  |  |  |  |  |  |  |  | 
O=C1Nc2ccccc2Nc2nc3cccccc-3c21 | > 100 µM | > 100 µM | > 100 µM | > 100 µM |  | > 100 µM | > 100 µM | > 100 µM | > 100 µM | > 100 µM |  |  |  |  |  |  |  |  | 
COc1ccc(/C=N/NC(=O)NCCCN(C)C)cc1 | > 100 µM | > 100 µM | > 100 µM |  | > 100 µM | > 100 µM |  | > 100 µM | > 100 µM | > 100 µM |  |  |  |  |  |  |  |  | 
O=C(Nc1nc2ccc([N+](=O)[O-])cc2[n+]([O-])n1)C(F)(F)F | > 100 µM | 44.5 µM | 53.1 µM | 41.4 µM | 37.9 µM | 98.8 µM |  | > 100 µM | 83.8 µM | > 100 µM |  |  |  |  |  |  |  |  | 
[C-]#[O+].[Cl][Sn]([Cl])[Cl].[Cl][Sn]([Cl])[Cl].[Pt].c1ccncc1 | > 100 µM | > 100 µM | > 100 µM | > 100 µM | > 100 µM | > 100 µM | > 100 µM | > 100 µM | > 100 µM | > 100 µM |  |  |  |  |  |  |  |  | 
c1ccc2c(c1)nc1n2CSC1 | > 100 µM | > 100 µM | > 100 µM | > 100 µM |  | > 100 µM | > 100 µM | > 100 µM |  | > 100 µM |  |  |  |  |  |  |  |  | 
CN1CCN(Cc2ccc(NC(=O)c3ccc(C#N)c(C#Cc4cnc(N)c5ncccc45)c3)cc2C(F)(F)F)CC1 |  | 7.01 µM | 3.26 µM | 8.59 µM |  |  |  |  |  | 3.06 µM |  | 1.76 µM | 1.73 µM | 2.74 µM |  | 1.52 µM |  |  | 
CC(/C=C/c1ccc([N+](=O)[O-])o1)=N/N1CC(CN2CCOCC2)OC1=O (stereo not given) | > 100 µM |  | 52.3 µM | 41.9 µM | 36.5 µM | 40.3 µM |  | 46.9 µM | 98.5 µM | 48.8 µM |  |  |  |  |  |  |  |  | 
CC(C)=CCc1c(C)cc2cc3c(c(O)c2c1O)C(O)=CC(=O)C3(CC=C(C)C)C/C=C(\C)CO (stereo not given) | 70 µM | 79.6 µM | 67.5 µM | 67.6 µM | 82.6 µM | 68 µM | 76.6 µM | 98.9 µM | 77 µM | 76.2 µM |  |  |  |  |  |  |  |  | 
COc1cc2c3c(n(CCN(C)C)c(=O)c2cc1OC)-c1cc2c(cc1C3=O)OCO2 | > 100 µM | > 100 µM |  | 19.2 µM | > 100 µM | > 100 µM |  | > 100 µM | > 100 µM | 1.59 µM | 2.64 µM | 18.6 µM |  | 0.0315 µM | 0.799 µM |  | 12.6 µM | 2.32 µM | 0.157 µM
Cc1nc2ccccc2c(=O)n1CC(=O)O | > 100 µM | > 100 µM | > 100 µM | > 100 µM | > 100 µM | > 100 µM | > 100 µM | > 100 µM | > 100 µM | > 100 µM |  |  |  |  |  |  |  |  | 
O=C(O)c1cc(=O)[nH]c(=S)[nH]1 | > 100 µM | > 100 µM | > 100 µM | > 100 µM | > 100 µM | > 100 µM |  | > 100 µM | > 100 µM |  |  |  |  |  |  |  |  |  | 
CC1(C)CCc2cc3c(-c4ccccc4)cc(=O)oc3cc2O1 | > 100 µM | > 100 µM | > 100 µM | > 100 µM |  | > 100 µM | > 100 µM | > 100 µM |  | > 100 µM |  |  |  |  |  |  |  |  | 
CCCCN(CCCC)CCCCNc1c(C)cnc2cc(Cl)ccc12 | > 100 µM |  |  |  | 32.5 µM | > 100 µM | 36.7 µM | > 100 µM | > 100 µM | 27 µM |  |  |  |  |  |  |  |  | 
CCOP(=O)(OCC)C(Cc1ccc(OC)c(OC)c1)N=C(c1ccccc1)c1ccccc1 (stereo not given) | > 100 µM | > 100 µM | > 100 µM | 44.3 µM | > 100 µM | > 100 µM |  | > 100 µM | > 100 µM | > 100 µM |  |  |  |  |  |  |  |  | 
Cc1ccc(S(=O)(=O)Oc2cc(S(=O)(=O)O)cc3cc(S(=O)(=O)O)cc(N)c23)cc1 | > 100 µM | > 100 µM | > 100 µM | > 100 µM | > 100 µM | > 100 µM |  | > 100 µM | > 100 µM | > 100 µM |  |  |  |  |  |  |  |  | 
CCN(CC)CCCC(Nc1c2ccc(Cl)cc2nc2ccc(OC)cc12)c1ccc(F)cc1 (stereo not given) | 3.88 µM | 9.06 µM | 3.25 µM | 5.36 µM | 4.1 µM | 3.27 µM |  | 3.84 µM | 5.99 µM | 3.25 µM | 1.92 µM | 3.15 µM | 1.71 µM | 2.18 µM | 2.44 µM | 1.73 µM | 2.02 µM | 1.56 µM | 1.91 µM
Cc1cccc2c(N)c3cccc(C(=O)NCCN(C)C)c3nc12 | 0.604 µM | 0.508 µM | 0.227 µM | 0.128 µM | 0.658 µM | 4.29 µM |  | 0.0262 µM | 3.5 µM |  |  |  |  |  |  |  |  |  | 
Cc1ccc(/C(=C/C=C(C#N)C#N)Sc2cc(Cl)ccc2Cl)cc1 | 15 µM | 32.6 µM | 15.3 µM |  | 7.8 µM | 12.5 µM |  | > 100 µM | > 100 µM | 12.4 µM |  |  |  |  |  |  |  |  | 
